According to the METLIN SMRT retention time set (Domingo-Almenara et al. 2019):

Assay: gradient 5% acetonitrile 3 min, to 50% in 2 min, to 85% in 15 min, held 3 min, 100 µL/min
Settings: column: Zorbax Extend-C18 2.1 x 50 mm; eluents: water / acetonitrile, 0.1% formic acid
Procedure, shortened: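 Retention time was recorded from adduct peaks, which were picked computationally and each inspected manually. Pure standards ran in mixtures of ~100 molecules on HPLC coupled to a quadrupole time-of-flight mass spectrometer, in positive and negative ionization mode, through a Zorbax Extend-C18 column (2.1 × 50 mm, 1.8 μm) at 100 μL/min. Eluents were water and acetonitrile, each with 0.1% formic acid.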
With `CCc1nc(-c2csc(S(=O)(=O)N3CCCC(C(=O)Nc4ccc(C)cc4)C3)c2)no1` (stereo not drawn) the RP-LC retention time was 901 s.
Molecule `COc1ccccc1NC(=O)C1Cc2ccccc2CN1S(=O)(=O)c1ccccc1` (stereo not drawn) has an RP-LC retention time of 1070 s.
`CCOc1ccc(Cc2nc(-c3ccc4oc(C)nc4c3)no2)cc1` showed an RP-LC retention time of 1250 s.
With `CCOC(=O)c1cn(CC(=O)Nc2cc(F)ccc2F)nn1` the RP-LC retention time was 740 s.
Work on `Cc1cc(NC(=O)c2nc(C(C)C)oc2C)ccc1F` yielded an RP-LC retention time of 1140 s.
`O=C(Nc1ccc(N2CCN(c3ccccc3)C2=O)nc1)c1cc(F)cc(F)c1` gave an RP-LC retention time of 1020 s.
`CCn1ccc(C(=O)N2CCCN(C3=NS(=O)(=O)C(c4ccc(C)cc4)=C3C)CC2)n1` showed an RP-LC retention time of 790 s.
For `COc1ccc(-c2ccnc3nc(CCc4ccc(OC)c(OC)c4)nn23)c(F)c1`, the RP-LC retention time was 867 s.
Molecule `CC(C)(C)c1cnc(CSc2cnc(NC(=O)C3CCNCC3)s2)o1` has an RP-LC retention time of 677 s.
`O=C(CCc1c(-c2ccc(F)cc2)nc2ccccn12)NCc1ccc2c(c1)OCO2` gave an RP-LC retention time of 655 s.
With `O=C(Cc1cccs1)N1CCc2nn(CC3CC3)c(=O)n2CC1` the RP-LC retention time was 676 s.
With `COCCNC(=O)CC1Sc2ncccc2N(CC(C)C)C1=O` (stereo not drawn) the RP-LC retention time was 659 s.
For `O=C(NCCN1CCCCC1)c1nc2ccccn2c1-c1ccsc1`, the RP-LC retention time was 527 s.
`Cc1ccc2nc(NC(=O)C3CCN(S(=O)(=O)c4cn(C(C)C)cn4)CC3)sc2c1` gave an RP-LC retention time of 849 s.
Work on `O=C(NCCn1nnc2cc(C(=O)N3CCCC3)ccc21)Nc1ccccc1Br` yielded an RP-LC retention time of 683 s.
For `COc1cccc(S(=O)(=O)N2CCC(c3noc(-c4ccccc4)n3)CC2)c1`, the RP-LC retention time was 1120 s.
Molecule `Fc1ccc(C(OCCN2CCN(CCCc3ccccc3)CC2)c2ccc(F)cc2)cc1` has an RP-LC retention time of 957 s.
In the case of `CC(=O)N1CCc2c(sc(NC(=O)c3cc(=O)c4ccccc4o3)c2C#N)C1`, the RP-LC retention time was 670 s.
With `CCCNC(=O)N1c2ccccc2NC2=C(C(=O)CC(c3ccco3)C2)C1c1ccc(OC)cc1` (stereo not drawn) the RP-LC retention time was 805 s.
`COc1ccc(Cl)cc1NS(=O)(=O)c1c[nH]c2ncccc12` gave an RP-LC retention time of 763 s.
`COc1cccc(CNC(=O)C2(C)CCCN(C(=O)Nc3cc(Cl)c(OC)cc3OC)C2)c1` (stereo not drawn) gave an RP-LC retention time of 900 s.
Work on `Cc1ccc(N2CCN(C(=O)c3ccc4ncnc(N5CCCC5)c4c3)CC2)cc1` yielded an RP-LC retention time of 668 s.
With `Cc1ccc(-c2nocc2CCC(=O)NCc2ccc3c(c2)OCO3)cc1` the RP-LC retention time was 816 s.
`Cc1ccc(CC(=O)Nc2ccc(-c3nc(Cn4nc(C)c(C)c4C)c(C)o3)cc2)cc1` showed an RP-LC retention time of 998 s.
`Cc1oc2ncnc(OCC(=O)Nc3ccc(S(N)(=O)=O)cc3)c2c1C` showed an RP-LC retention time of 738 s.
`CCn1nnc2ccc(-c3noc(-c4cccc(C#N)c4)n3)cc21` showed an RP-LC retention time of 957 s.
`COc1ccc(NC(=O)C2CCCN2S(=O)(=O)c2ccc3c(c2)CCCC(=O)N3)cc1OC` (stereo not drawn) showed an RP-LC retention time of 688 s.
In the case of `CCN1C(=O)c2ccccc2Oc2ccc(C(=O)N3CCCCCC3)cc21`, the RP-LC retention time was 900 s.
In the case of `Cc1cc2c(c(=O)n(-c3ccccc3)c(=O)n2CC(=O)Nc2ccc(C(C)C)cc2)n1C`, the RP-LC retention time was 975 s.
With `Cc1ccc(C)c(NC(=O)NC2CCN(c3ccccc3)C2=O)c1` (stereo not drawn) the RP-LC retention time was 823 s.
`O=C(CC1CCN(C(=O)NCCc2ccccc2)CC1)N1CCCCC1` showed an RP-LC retention time of 759 s.
Molecule `Cc1ccc(-c2noc(-c3ccc(N4CCN(C5CCCCC5)CC4)nc3)n2)cc1` has an RP-LC retention time of 848 s.
With `COc1ccc(F)cc1S(=O)(=O)N1C[C@@H]2C[C@H]1C[C@@H]2NC(=O)c1cccs1` the RP-LC retention time was 834 s.
`O=C(CN1C(=O)C2CCCCN2c2ccc(S(=O)(=O)N3CCCC3)cc21)NCc1ccccc1` (stereo not drawn) gave an RP-LC retention time of 921 s.
With `CNCC[C@@H](Oc1ccccc1C)c1ccccc1` the RP-LC retention time was 728 s.
With `CCN1CCN(c2cc(C)c3cc(NC(=S)N4CCC(N5CCCCC5)CC4)ccc3n2)CC1` the RP-LC retention time was 488 s.
With `CC(C)c1csc(-c2csc(S(=O)(=O)NCc3ccc(Cl)cc3)c2)n1` the RP-LC retention time was 1160 s.
Molecule `COc1cccc(Cn2cc(C(=O)O)nn2)c1` has an RP-LC retention time of 635 s.
For `CCN(Cc1ccc(F)cc1)Cc1cc(=O)n2cc(Cl)ccc2n1`, the RP-LC retention time was 578 s.
`COc1ccccc1-c1nc(Cn2nnc(-c3nc(-c4ccccc4C)no3)c2C)c(C)o1` gave an RP-LC retention time of 1180 s.
For `CCNc1nc(C)cc(N2CCN(S(=O)(=O)c3cccc(C)c3)CC2)n1`, the RP-LC retention time was 708 s.
`CCS(=O)(=O)N1CC(=O)N(c2ccc(F)cc2C)C(C)(C(=O)NCc2ccccc2)C1` (stereo not drawn) gave an RP-LC retention time of 818 s.
`COc1ccc(NC(=O)C2CCN(S(=O)(=O)c3cn(C)cn3)CC2)c(OC)c1` gave an RP-LC retention time of 666 s.
Work on `COc1ccc(-c2nc3cnccn3c2Nc2ccc(C)cc2C)cc1OC` yielded an RP-LC retention time of 871 s.
Work on `CCOc1ccc(C2Cn3nnc(-c4nc(-c5cccc(F)c5)no4)c3CO2)cc1` (stereo not drawn) yielded an RP-LC retention time of 1220 s.
Work on `c1cc(N2CCSCC2)ncc1-c1noc(CN2CCN(C3CCCCC3)CC2)n1` yielded an RP-LC retention time of 655 s.
Work on `O=C(O)c1nnn(-c2cccc(F)c2)c1-c1ccncc1` yielded an RP-LC retention time of 616 s.
In the case of `CCC(C)NS(=O)(=O)c1ccc(-c2c(C)noc2C)cc1` (stereo not drawn), the RP-LC retention time was 936 s.
`CC(C)NC(=O)N1CCCC(c2nc(C(C)C)no2)CCNC(=O)CC1` (stereo not drawn) gave an RP-LC retention time of 658 s.
Molecule `Cc1nc(-c2cn(C)c3ncccc23)sc1C(=O)Nc1ccc(Cl)cc1F` has an RP-LC retention time of 975 s.
`COc1cccc(-c2ccc(=O)n(CCCC(=O)Nc3cccc4nsnc34)n2)c1` showed an RP-LC retention time of 764 s.
With `O=c1n(Cc2ccc(F)cc2)nc2c(-c3nc(-c4cccc(F)c4)no3)cccn12` the RP-LC retention time was 971 s.
`O=c1n(Cc2c(F)cccc2Cl)nc2ccc(S(=O)(=O)N3CCCC3)cn12` showed an RP-LC retention time of 885 s.
`Cc1cc2c(c(=O)n(-c3ccc(F)cc3)c(=O)n2CC(=O)Nc2ccccc2Cl)n1C` gave an RP-LC retention time of 858 s.
`O=C(c1ccc(F)cc1Cl)N1CCc2nc(-c3ccc(Cl)cc3)ncc2C1` gave an RP-LC retention time of 1160 s.
With `Cc1ccc(C)c(CNC(=O)c2cc3c(=O)n(C)c4ccccc4n3n2)c1` the RP-LC retention time was 966 s.
With `CCn1c(=O)c(C)nc2cc(-c3noc(/C=C/c4ccc(OC)cc4)n3)ccc21` the RP-LC retention time was 1140 s.
`CCCN1C(=O)COc2ccc(-c3noc(-c4cccc(N(C)C)c4)n3)cc21` gave an RP-LC retention time of 1300 s.
`Cc1cccc(NC(=O)CSc2nnc3c4cc(-c5ccc(C)c(C)c5)nn4ccn23)c1` showed an RP-LC retention time of 989 s.
Molecule `COc1ccc(-c2ncc3c(n2)CCN(C(=O)Nc2cc(Cl)ccc2C)C3)cc1` has an RP-LC retention time of 984 s.
For `Cc1nc(-c2ccc3c(c2)CCN3C(=O)Cc2cccc(F)c2)no1`, the RP-LC retention time was 923 s.
In the case of `Cc1noc(C)c1CC(=O)N1CCc2c(c(-c3nncn3C)nn2C)C1`, the RP-LC retention time was 591 s.
`O=C(CCC1CCCN(S(=O)(=O)c2ccccc2)C1)N1CCN(c2ccccn2)CC1` (stereo not drawn) gave an RP-LC retention time of 657 s.
`COCCN1C(=O)c2oc3ccc(F)cc3c(=O)c2C1c1ccc([N+](=O)[O-])cc1` (stereo not drawn) showed an RP-LC retention time of 803 s.
Molecule `Cc1ccc2nc(Nc3nc(C)cc(C(F)(F)F)n3)nc(C)c2c1` has an RP-LC retention time of 713 s.
In the case of `CCOC(=O)c1c(C)[nH]c(C)c1S(=O)(=O)N1CCC(C(=O)NCc2ccccc2)CC1`, the RP-LC retention time was 754 s.
Work on `O=C(Oc1ccccc1)N1CCC(CNC(=O)C2(c3ccccc3)CCOCC2)CC1` yielded an RP-LC retention time of 816 s.
Work on `CCOc1cccc(-c2noc(Cn3nc(-c4ccc5c(c4)OCO5)ccc3=O)n2)c1` yielded an RP-LC retention time of 1130 s.
`CN(C)S(=O)(=O)N1CC(c2nc(Cc3cccnc3)no2)C1` showed an RP-LC retention time of 543 s.
Molecule `O=C(Nc1nnc(C2CC(=O)N(c3ccc(Cl)cc3)C2)o1)c1ccccc1` (stereo not drawn) has an RP-LC retention time of 752 s.
Molecule `O=C(CCCn1c(=O)c2cccn2c2ccc(Br)cc21)NCc1ccc2c(c1)OCO2` has an RP-LC retention time of 915 s.
Work on `CC1=C(c2ccc(C)c(C)c2)S(=O)(=O)N=C1N1CCC(NC(=O)NC(C)(C)C)CC1` yielded an RP-LC retention time of 1350 s.
Work on `CCOC(=O)N1CCN(CC(O)COc2c(F)cc(Br)cc2F)CC1` (stereo not drawn) yielded an RP-LC retention time of 591 s.
For `CCOc1ccc(-c2[nH]ncc2CNS(=O)(=O)c2ccc(NC(C)=O)cc2)cc1`, the RP-LC retention time was 702 s.
With `CCc1noc(NC(C)=O)c1-c1ccc(C)c(S(=O)(=O)N2CCc3ccccc32)c1` the RP-LC retention time was 920 s.
With `O=C(CCCN1C(=O)C(c2ccccc2)Oc2cccnc21)NCCCN1CCCCC1` (stereo not drawn) the RP-LC retention time was 573 s.
Molecule `Cc1ccc(-c2nc3nc(C)cc(N(CCO)Cc4ccccc4)n3n2)cc1` has an RP-LC retention time of 815 s.
`Cc1ccc(-c2noc(CN3N=NC4C(=O)N(c5ccc(C)c(C)c5)C(=O)C43)n2)cc1` (stereo not drawn) showed an RP-LC retention time of 1110 s.
Molecule `Cc1nc(C)c(-c2ccc(=O)[nH]n2)s1` has an RP-LC retention time of 558 s.
`COc1cccc2nnc(NC(=O)CCC(=O)NCC(C)C)n12` showed an RP-LC retention time of 587 s.
In the case of `CCC1CCCCN1CCCNC(=O)c1cc(S(=O)(=O)N2CCCC2)ccc1Cl` (stereo not drawn), the RP-LC retention time was 661 s.
With `O=c1c2c(nc(SCc3ccccn3)n1CCc1ccccc1)CCS2` the RP-LC retention time was 657 s.
`O=C(Nc1ccc(-c2nnc3n2CCCC3)cc1)c1ccc2c(c1)OCO2` gave an RP-LC retention time of 661 s.
Work on `Cc1ccccc1CNC(=O)c1ccc2c(c1)n(C)c(=O)c1ccnn12` yielded an RP-LC retention time of 739 s.
`CC(C)NC(=O)N1CCC(CCOc2ccccc2F)C1` (stereo not drawn) showed an RP-LC retention time of 853 s.
Molecule `O=C(NC1CCCCC1)C1CC(=O)N(CCc2c[nH]c3ccc(Cl)cc23)C1` (stereo not drawn) has an RP-LC retention time of 817 s.
For `Cc1cccc(CNC(=O)c2nnc(-c3ccc(S(=O)(=O)N(C)C)cc3)o2)c1`, the RP-LC retention time was 894 s.
In the case of `Cn1c(=O)c2c(nc(OCCc3ccccc3)n2C)n(C)c1=O`, the RP-LC retention time was 909 s.
